Source: BindingDB's records for doi:10.1021/acs.jmedchem.0c00689 (Virginia Commonwealth University, 2020)
Where a SMILES comes first, the peptide text is derived from it. The star is where a group is joined. X1 = O=C(Cc1ccc(O)cc1)*

Experiments:
[1] = Inhibition of recombinant human full-length His6-tagged NTMT1 (1 to 222 residues) expressed in Escherichia coli BL21-CodonPlus(DE3)-RIL competent cells assessed as Me2RCC1 level at 2 uM pre-incubated for 10 mins before RCC1 substrate addition and measured after 15 mins by Western blot analysis relative to control
[2] = Inhibition of recombinant human full-length His6-tagged NTMT1 (1 to 222 residues) expressed in Escherichia coli BL21-CodonPlus(DE3)-RIL competent cells assessed as Me3RCC1 level at 50 uM pre-incubated for 10 mins before RCC1 substrate addition and measured after 15 mins by Western blot analysis relative to control
[3] = Inhibition of recombinant human full-length His6-tagged NTMT1 (1 to 222 residues) expressed in Escherichia coli BL21-CodonPlus(DE3)-RIL competent cells assessed as Me2RCC1 level at 10 uM pre-incubated for 0 mins before RCC1 substrate addition and measured after 15 mins by Western blot analysis relative to control
[4] = Inhibition of recombinant human full-length His6-tagged NTMT1 (1 to 222 residues) expressed in Escherichia coli BL21-CodonPlus(DE3)-RIL competent cells assessed as Me2RCC1 level at 10 uM pre-incubated for 10 mins before RCC1 substrate addition and measured after 15 mins by Western blot analysis relative to control
[5] = Inhibition of recombinant human full-length His6-tagged NTMT1 (1 to 222 residues) expressed in Escherichia coli BL21-CodonPlus(DE3)-RIL competent cells assessed as Me3RCC1 level at 2 uM pre-incubated for 10 mins before RCC1 substrate addition and measured after 15 mins by Western blot analysis relative to control

IC50 [1] [nM]	IC50 [2] [nM]	IC50 [3] [nM]	Compound	IC50 [4] [nM]	IC50 [5] [nM]
100	100	1000	N=C(N)NCCC[C@H](NC(=O)[C@H](CCCCN)NC(=O)[C@@H]1CCCN1C(=O)Cc1ccc(O)cc1)C(N)=O		
100	100	900	N=C(N)NCCC[C@H](NC(=O)[C@H](CCCNC(=N)N)NC(=O)[C@H](CCCNC(=N)N)NC(=O)[C@H](CCCNC(=N)N)NC(=O)[C@H](CCCNC(=N)N)NC(=O)[C@H](CCCNC(=N)N)NC(=O)[C@H](CCCCN)NC(=O)[C@@H]1CCCN1C(=O)Cc1ccc(O)cc1)C(N)=O (X1-PKRRRRRR-NH2)	1000	800

Compound	IC50 [1] [nM]	IC50 [2] [nM]	IC50 [3] [nM]	IC50 [4] [nM]	IC50 [5] [nM]
N=C(N)NCCC[C@H](NC(=O)[C@H](CCCNC(=N)N)NC(=O)[C@H](CCCNC(=N)N)NC(=O)[C@H](CCC(N)=O)NC(=O)[C@H](CCCNC(=N)N)NC(=O)[C@H](CCCNC(=N)N)NC(=O)[C@H](CCCCN)NC(=O)[C@H](CCCCN)NC(=O)[C@H](CCCNC(=N)N)NC(=O)CNC(=O)[C@H](CCCNC(=N)N)NC(=O)[C@H](CCCCN)NC(=O)[C@@H]1CCCN1C(=O)Cc1ccc(O)cc1)C(N)=O		200	700	1000	1000
